In test [1] the test system is HOS cells (human osteoblast cells). As to the kind of experiment: Cellular radioprotection, colony formation assay (cell survival after gamma radiation). Type of test: cell-based. The following applies: for survival: HOS cells under radioprotective treatment conditions (FIG. 2); for DRF: in vitro comparison with amifostine, HOS cells, gamma radiation (FIG. 2). The procedure: Radiation protection by P529 is evaluated using a human osteoblast cell model (HOS cells). The effect of P529 (10 μM, 4 hr) on cell survival after radiation is assessed; cell survival was measured using the colony formation assay.

The test system of the next test is HOS cells. Put plainly: Chromosomal radiation protection, metaphase aberration scoring. The following applies: for Breaks / Fragments / Percent Aberrant Cells / Rings + Dicentrics: Radiation + P529 (25 uM, 12 hrs pre-radiation). Type of test: cell-based, human. The procedure: Non-tumorigenic immortalized human osteosarcoma cells (HOS) are exposed to increasing doses of gamma radiation (O-4 Gy; 6.6 Gy/min). Control cells receive no drug; Drug-treated cells receive P529 (25 uM, 12 hrs pre-radiation). Metaphase plates are prepared from control and drug-treated cells (Gupta, Br J Radiol, 59:625 1986). A total of 100 metaphases are examined per group/dose. Aberrant metaphases, chromatid and chromosome breaks, fragments, rings, and dicentrics are scored under a light microscope. Aberrations are identified using criteria given by Savage (J Med Genetics 12:103-122, 1976).

In test [2] the test system is C57 mice exposed to gamma radiation. Put plainly: Mitigation of radiation effect in vivo (TBI 9 Gy). Conditions: female C57 mice, 9 Gy gamma radiation; ip 100 μl on day 1 and days 3-26. From the text: Sixteen female C57 mice are exposed to gamma radiation (9 Gy). Group 1 received radiation only (no drug). Group 2 received radiation and P529 as noted in the following schedule: […]

`COc1ccc(COc2cc3oc(=O)c4cc(C(C)O)ccc4c3cc2OC)cc1` (stereo not shown) [P529, 8-(1-Hydroxy-ethyl)-2-methoxy-3-(4-methoxy-benzyloxy)-benzo[c]chromen-6-one]: the “dose-reduction factor (DRF)” value in test [1] (HOS cells pretreated 10 μM for 4 hr prior to gamma radiation, at the 0.005 survival fraction (FIG. 1)) came to 1.38. In test [1], the survival worked out at 0.99 and the DRF stood at 1.34. Moreover, the “radiation resistance of cells” value in test [1] (pretreated 10 μM for 4 hr prior to radiation exposure) was “significant radiation resistance”. Moreover, in the test with HOS cells (dose 0 Gy), the Breaks entry is listed as “.0016 ± .0002”, the Fragments result is “.007 ± .0009”, the “Percent Aberrant Cells” value was “.66 ± .07%” and the “Rings + Dicentrics” value amounted to 0.00 ± 0.0. In addition, in the test on HOS cells (dose 1 Gy), the Breaks entry is on record as “.0013 ± .0002”, the Fragments entry is reported as “.05 ± .006”, the “Percent Aberrant Cells” value is given as 3.1 ± .033% and the “Rings + Dicentrics” value was 0.00 ± 0.0. Also, in the test on HOS cells (dose 2 Gy), the Breaks result is recorded as “.0018 ± .0002”, the Fragments entry is “.118 ± .022”, the “Percent Aberrant Cells” value was 5.0 ± .052% and the “Rings + Dicentrics” value is “.003 ± .0004”. Also, in the test on HOS cells (dose 3 Gy), the Breaks entry is “.0022 ± .0003”, the Fragments entry was “.23 ± .028”, the “Percent Aberrant Cells” value is 11.4 ± 1.22% and the “Rings + Dicentrics” value was “.005 ± .0004”. Also, in the test with HOS cells (dose 4 Gy), the Breaks result was “.0039 ± .0004”, the Fragments result is listed as “.30 ± .031”, the “Percent Aberrant Cells” value is listed as 19.5 ± 1.29% and the “Rings + Dicentrics” value was “.017 ± .002”. In addition, the “chromosomal protection from radiation exposure” value in the test with HOS cells (human HOS cells, Table 2) is “can provide chromosomal protection from radiation exposure”. Moreover, the “mitigation of radiation effect and damage” value in test [2] is reported as “can mitigate the radiation effect”.

In test [1], `NCCCNCCSP(=O)(O)O` [amifostine, reference compound] gave a survival of 0.35 and a DRF of 1.45.

Source of the values: patent publication US9381187B2, “Radiation countermeasure agents” (PALOMA PHARMACEUTICALS, INC., priority 2011, dated 2016).
